Where a SMILES comes first, the peptide text is derived from it. [ ]: non-standard residue; d: D form. The star is where a group is joined. NHCH2CH2OH = OCCN*; For = O=C*

Series [1] relates to P388 mouse leukemia cells. The note with it: 92 h. In a few lines:
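P388 cells at 1 × 10^4 cells/mL (final) were exposed to library peptides (stocks diluted 250-fold in RPMI1640/10% FBS) for 92 h at 37 °C, 5% CO2. Viable cells were counted by WST-1/1-methoxy PMS (4 h), absorbance 415 nm, and expressed as cell viability (%).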

Series [2] relates to Streptococcus pyogenes SSI-9. Briefly: Antibacterial activity assay of bead-derived peptides (three concentrations). The settings on record: S. pyogenes, bead-derived peptide solution, three concentrations. Set-up: key: +++: inhibition by the 640-fold diluted peptide solution; ++: inhibition by the 160-fold diluted solution; +: inhibition by the 40-fold diluted solution; -: no inhibition. The series is classed as cell-based. In a few lines: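 Library peptide stock applied undiluted, 4-fold and 16-fold diluted in DMSO to S. pyogenes SSI-9 (2 × 10^5 CFU) in cation-adjusted Mueller Hinton broth with 5% laked horse blood. After 18 h at 37 °C, growth judged by visible cell precipitation.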

Series [3] in a line: H+/Na+ transport assay of bead-derived peptides (one-point).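 Note: relative to parent gramicidin A activity set to 1.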 The series is classed as biochemical. The note with it: bead-derived peptide solution, EYPC/EYPG LUVs. Set-up: key: relative activity; mean of two control wells = 1.00. In a few lines:
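H+/Na+ transport is monitored through pyranine fluorescence in freshly extruded LUVs after a 30-min room-temperature vortex with each library peptide at a single concentration. Signals are normalized to detergent (Triton X-100) and untreated controls.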

In series [1], `CNC(=O)C[C@@H](NC(=O)[C@H](Cc1c[nH]c2ccccc12)NC(=O)[C@@H](CC(C)C)NC(=O)[C@H](Cc1c[nH]c2ccccc12)NC(=O)[C@H](NC(=O)[C@H](Cc1c[nH]c2ccccc12)NC(=O)[C@@H](CC(C)C)NC(=O)[C@@H](NC(=O)[C@H](NC(=O)[C@H](C)NC(=O)[C@@H](CC(C)C)NC(=O)[C@H](C)NC(=O)CNC(=O)[C@@H](NC=O)C(C)C)C(C)C)C(C)C)C(C)C)C(=O)N[C@@H](Cc1c[nH]c2ccccc12)C(=O)NCCO` [compound 10043] (For-VGA[dL]A[dV]V[dL]W[dV]W[dL]W[dD](NHMe)W-NHCH2CH2OH) showed a cell viability/% of 56.6%. In addition, the antibacterial activity entry in series [2] is on record as “-”. For the same compound, the “H+/Na+ transport activity normalized against the value of 1 (1.00)” value (shortened to “H+/Na+ transport activity normalized”) in series [3] came out at 1.09.

Regarding `CC(C)C[C@@H](NC(=O)[C@H](C)NC(=O)[C@H](NC(=O)[C@H](C)NC(=O)CNC(=O)[C@@H](NC=O)C(C)C)C(C)C)C(=O)N[C@H](C(=O)N[C@@H](C(=O)N[C@@H](Cc1c[nH]c2ccccc12)C(=O)N[C@@H](C(=O)N[C@@H](Cc1c[nH]c2ccccc12)C(=O)N[C@@H](C(=O)N[C@@H](Cc1c[nH]c2ccccc12)C(=O)N[C@H](CC(C)C)C(=O)N[C@@H](Cc1c[nH]c2ccccc12)C(=O)NCCO)C(C)C)C(C)C)[C@H](C)O)C(C)C` [compound 11143] (For-VGA[dV]A[dL]V[dT]W[dV]W[dV]W[dL]W-NHCH2CH2OH), the cell viability/% in series [1] turned out to be 63.4%. In addition, the antibacterial activity entry in series [2] is “-”. For the same compound, the “H+/Na+ transport activity normalized” value in series [3] is given as 1.19.

On to `CC(C)C[C@@H](NC(=O)[C@H](C)NC(=O)CNC(=O)[C@@H](NC=O)C(C)C)C(=O)N[C@@H](C)C(=O)N[C@H](CC(C)C)C(=O)N[C@H](C(=O)N[C@@H](C(=O)N[C@@H](Cc1c[nH]c2ccccc12)C(=O)N[C@@H](C(=O)N[C@@H](Cc1c[nH]c2ccccc12)C(=O)N[C@@H](C(=O)N[C@@H](Cc1c[nH]c2ccccc12)C(=O)N[C@@H](C(=O)N[C@@H](Cc1c[nH]c2ccccc12)C(=O)NCCO)C(C)C)C(C)C)C(C)C)C(C)C)C(C)C` [compound 5488] (For-VGA[dL]A[dL]V[dV]W[dV]W[dV]W[dV]W-NHCH2CH2OH), for which the cell viability/% in series [1] amounted to 36.4%. The antibacterial activity result in series [2] is given as “+”. Besides, the “H+/Na+ transport activity normalized” value in series [3] stood at 1.23.

In turn, `CNC(=O)C[C@@H](NC(=O)[C@@H](NC(=O)[C@@H](CC(C)C)NC(=O)[C@H](C)NC(=O)[C@H](NC(=O)[C@H](C)NC(=O)CNC(=O)[C@@H](NC=O)C(C)C)C(C)C)C(C)C)C(=O)N[C@@H](Cc1c[nH]c2ccccc12)C(=O)N[C@@H](C(=O)N[C@@H](Cc1c[nH]c2ccccc12)C(=O)N[C@@H](C(=O)N[C@@H](Cc1c[nH]c2ccccc12)C(=O)N[C@H](CC(C)C)C(=O)N[C@@H](Cc1c[nH]c2ccccc12)C(=O)NCCO)C(C)C)C(C)C` [compound 11226] (For-VGA[dV]A[dL]V[dD](NHMe)W[dV]W[dV]W[dL]W-NHCH2CH2OH) registered a cell viability/% in series [1] of 76.8%. Besides, the antibacterial activity result in series [2] is listed as “-”. Further, the “H+/Na+ transport activity normalized” value in series [3] was 1.04.

On to `CNC(=O)C[C@@H](NC(=O)[C@H](Cc1c[nH]c2ccccc12)NC(=O)[C@@H](CC(C)C)NC(=O)[C@H](Cc1c[nH]c2ccccc12)NC(=O)[C@H](NC(=O)[C@H](Cc1c[nH]c2ccccc12)NC(=O)[C@H](NC(=O)[C@@H](NC(=O)[C@@H](CC(C)C)NC(=O)[C@H](C)NC(=O)[C@@H](CC(C)C)NC(=O)[C@H](C)NC(=O)CNC(=O)[C@@H](NC=O)C(C)C)C(C)C)C(C)C)C(C)C)C(=O)N[C@@H](Cc1c[nH]c2ccccc12)C(=O)NCCO` [compound 10678] (For-VGA[dL]A[dL]V[dV]W[dV]W[dL]W[dD](NHMe)W-NHCH2CH2OH), for which the cell viability/% in series [1] came to 76.0%. For the same compound, the antibacterial activity entry in series [2] is “-”. The “H+/Na+ transport activity normalized” value in series [3] worked out at 1.10.

`CC(C)C[C@@H](NC(=O)[C@H](Cc1c[nH]c2ccccc12)NC(=O)[C@H](NC(=O)[C@H](Cc1c[nH]c2ccccc12)NC(=O)[C@H](NC(=O)[C@H](Cc1c[nH]c2ccccc12)NC(=O)[C@@H](CC(C)C)NC(=O)[C@@H](NC(=O)[C@H](NC(=O)[C@H](C)NC(=O)[C@H](NC(=O)[C@H](C)NC(=O)CNC(=O)[C@@H](NC=O)C(C)C)[C@H](C)O)C(C)C)C(C)C)C(C)C)C(C)C)C(=O)N[C@@H](Cc1c[nH]c2ccccc12)C(=O)NCCO` [compound 10500] (For-VGA[dT]A[dV]V[dL]W[dV]W[dV]W[dL]W-NHCH2CH2OH): the cell viability/% in series [1] is reported as 100.0%. In addition, the antibacterial activity entry in series [2] is reported as “-”. For the same compound, in series [3], the “H+/Na+ transport activity normalized” value was found to be 1.14.

On to `CNC(=O)C[C@@H](NC(=O)[C@H](Cc1c[nH]c2ccccc12)NC(=O)[C@@H](CC(C)C)NC(=O)[C@H](Cc1c[nH]c2ccccc12)NC(=O)[C@H](NC(=O)[C@H](Cc1c[nH]c2ccccc12)NC(=O)[C@H](NC(=O)[C@@H](NC(=O)[C@@H](CC(C)C)NC(=O)[C@H](C)NC(=O)[C@@H](CC(C)C)NC(=O)[C@H](C)NC(=O)CNC(=O)[C@@H](NC=O)C(C)C)C(C)C)C(C)C)C(C)C)C(=O)N[C@@H](Cc1c[nH]c2ccccc12)C(=O)NCCO` [compound 9609] (For-VGA[dL]A[dL]V[dV]W[dV]W[dL]W[dD](NHMe)W-NHCH2CH2OH), for which the cell viability/% in series [1] worked out at 100.0%. In addition, the antibacterial activity result in series [2] is “-”. Moreover, the “H+/Na+ transport activity normalized” value in series [3] stood at 1.15.

As for `CC(C)C[C@@H](NC(=O)[C@H](C)NC(=O)CNC(=O)[C@@H](NC=O)C(C)C)C(=O)N[C@@H](C)C(=O)N[C@H](CC(C)C)C(=O)N[C@H](C(=O)N[C@H](CC(C)C)C(=O)N[C@@H](Cc1c[nH]c2ccccc12)C(=O)N[C@H](CC(C)C)C(=O)N[C@@H](Cc1c[nH]c2ccccc12)C(=O)N[C@@H](C(=O)N[C@@H](Cc1c[nH]c2ccccc12)C(=O)N[C@H](CC(C)C)C(=O)N[C@@H](Cc1c[nH]c2ccccc12)C(=O)NCCO)[C@H](C)O)C(C)C` [compound 2283] (For-VGA[dL]A[dL]V[dL]W[dL]W[dT]W[dL]W-NHCH2CH2OH), the cell viability/% in series [1] is 100.0%. In series [2], the antibacterial activity entry was “-”. Besides, the “H+/Na+ transport activity normalized” value in series [3] is 1.07.

In series [1], `CC(C)C[C@@H](NC(=O)[C@H](Cc1c[nH]c2ccccc12)NC(=O)[C@H](NC(=O)[C@H](Cc1c[nH]c2ccccc12)NC(=O)[C@@H](CC(C)C)NC(=O)[C@H](Cc1c[nH]c2ccccc12)NC(=O)[C@H](NC(=O)[C@@H](NC(=O)[C@H](NC(=O)[C@H](C)NC(=O)[C@H](NC(=O)[C@H](C)NC(=O)CNC(=O)[C@@H](NC=O)C(C)C)C(C)C)C(C)C)C(C)C)C(C)C)C(C)C)C(=O)N[C@@H](Cc1c[nH]c2ccccc12)C(=O)NCCO` [compound 9293] (For-VGA[dV]A[dV]V[dV]W[dL]W[dV]W[dL]W-NHCH2CH2OH) yielded a cell viability/% of 4.3%. Also, the antibacterial activity entry in series [2] is recorded as “++”. Also, the “H+/Na+ transport activity normalized” value in series [3] worked out at 1.05.

In series [1], `CC(C)C[C@@H](NC(=O)[C@H](C)NC(=O)CNC(=O)[C@@H](NC=O)C(C)C)C(=O)N[C@@H](C)C(=O)N[C@H](CC(C)C)C(=O)N[C@H](C(=O)N[C@H](CC(C)C)C(=O)N[C@@H](Cc1c[nH]c2ccccc12)C(=O)N[C@H](CC(C)C)C(=O)N[C@@H](Cc1c[nH]c2ccccc12)C(=O)N[C@@H](C(=O)N[C@@H](Cc1c[nH]c2ccccc12)C(=O)N[C@H](CC(C)C)C(=O)N[C@@H](Cc1c[nH]c2ccccc12)C(=O)NCCO)C(C)C)C(C)C` [compound 646] (For-VGA[dL]A[dL]V[dL]W[dL]W[dV]W[dL]W-NHCH2CH2OH) gave a cell viability/% of 0.2%. The antibacterial activity result in series [2] is “+”. For the same compound, in series [3], the “H+/Na+ transport activity normalized” value is given as 1.11.

As for `CC(C)C[C@@H](NC(=O)[C@H](C)NC(=O)CNC(=O)[C@@H](NC=O)C(C)C)C(=O)N[C@@H](C)C(=O)N[C@H](CC(C)C)C(=O)N[C@H](C(=O)N[C@@H](C(=O)N[C@@H](Cc1c[nH]c2ccccc12)C(=O)N[C@@H](C(=O)N[C@@H](Cc1c[nH]c2ccccc12)C(=O)N[C@H](CC(C)C)C(=O)N[C@@H](Cc1c[nH]c2ccccc12)C(=O)N[C@H](CC(C)C)C(=O)N[C@@H](Cc1c[nH]c2ccccc12)C(=O)NCCO)[C@H](C)O)C(C)C)C(C)C` [compound 8342] (For-VGA[dL]A[dL]V[dV]W[dT]W[dL]W[dL]W-NHCH2CH2OH), the cell viability/% in series [1] is 54.5%. The antibacterial activity entry in series [2] is on record as “-”. The “H+/Na+ transport activity normalized” value in series [3] is on record as 1.00.

Consider `CC(C)C[C@@H](NC(=O)[C@H](C)NC(=O)CNC(=O)[C@@H](NC=O)C(C)C)C(=O)N[C@@H](C)C(=O)N[C@@H](C(=O)N[C@H](C(=O)N[C@@H](C(=O)N[C@@H](Cc1c[nH]c2ccccc12)C(=O)N[C@@H](C(=O)N[C@@H](Cc1c[nH]c2ccccc12)C(=O)N[C@@H](C(=O)N[C@@H](Cc1c[nH]c2ccccc12)C(=O)N[C@H](CC(C)C)C(=O)N[C@@H](Cc1c[nH]c2ccccc12)C(=O)NCCO)C(C)C)C(C)C)[C@H](C)O)C(C)C)C(C)C` [compound 809] (For-VGA[dL]A[dV]V[dT]W[dV]W[dV]W[dL]W-NHCH2CH2OH), for which the cell viability/% in series [1] is on record as 100.0%. In addition, the antibacterial activity entry in series [2] is “-”. The “H+/Na+ transport activity normalized” value in series [3] stood at 1.13.

These data come from PMC7531004, “Discovery of gramicidin A analogues with altered activities by multidimensional screening of a one-bead-one-compound library” (Nature Communications, 2020).
